ChEMBL document CHEMBL4507303, “Data for DCP probe TP-004” (2021)

What was measured:
[1] = test system: Serine/threonine-protein kinase B-raf (Homo sapiens), P15056 [V600E]; conditions: Compound concentration 1000.0 nM
[2] = target: Serine/threonine-protein kinase BRSK1 (Homo sapiens) (UniProt Q8TDC3); conditions: Compound concentration 1000.0 nM
[3] = target: Cyclin-dependent kinase 11B (Homo sapiens) (UniProt P21127); conditions: Compound concentration 1000.0 nM
[4] = target: Cyclin-dependent kinase 19 (Homo sapiens) (UniProt Q9BWU1); conditions: Compound concentration 1000.0 nM
[5] = target: Cyclin-dependent kinase-like 3 (Homo sapiens) (UniProt Q8IVW4); conditions: Compound concentration 1000.0 nM
[6] = target: Casein kinase I isoform gamma-1 (Homo sapiens) (UniProt Q9HCP0); conditions: Compound concentration 1000.0 nM
[7] = target: Casein kinase I isoform gamma-2 (Homo sapiens) (UniProt P78368); conditions: Compound concentration 1000.0 nM
[8] = target: Megakaryocyte-associated tyrosine-protein kinase (Homo sapiens) (UniProt P42679); conditions: Compound concentration 1000.0 nM
[9] = test system: Epidermal growth factor receptor (Homo sapiens), P00533 [G719S]; conditions: Compound concentration 1000.0 nM
[10] = target: Receptor tyrosine-protein kinase erbB-3 (Homo sapiens) (UniProt P21860); conditions: Compound concentration 1000.0 nM
[11] = target: G protein-coupled receptor kinase 3 (Homo sapiens) (UniProt P35626); conditions: Compound concentration 1000.0 nM
[12] = target: Rhodopsin kinase GRK7 (Homo sapiens) (UniProt Q8WTQ7); conditions: Compound concentration 1000.0 nM
[13] = target: Serine/threonine-protein kinase LATS1 (Homo sapiens) (UniProt O95835); conditions: Compound concentration 1000.0 nM
[14] = target: Serine/threonine-protein kinase MAK (Homo sapiens) (UniProt P20794); conditions: Compound concentration 1000.0 nM
[15] = target: Mitogen-activated protein kinase kinase kinase kinase 2 (Homo sapiens) (UniProt Q12851); conditions: Compound concentration 1000.0 nM
[16] = target: Mitogen-activated protein kinase kinase kinase kinase 3 (Homo sapiens) (UniProt Q8IVH8); conditions: Compound concentration 1000.0 nM
[17] = target: Hepatocyte growth factor receptor (Homo sapiens) (UniProt P08581); conditions: Compound concentration 1000.0 nM
[18] = target: Mitogen-activated protein kinase kinase kinase 9 (Homo sapiens) (UniProt P80192); conditions: Compound concentration 1000.0 nM
[19] = target: Macrophage-stimulating protein receptor (Homo sapiens) (UniProt Q04912); conditions: Compound concentration 1000.0 nM
[20] = target: Mitogen-activated protein kinase 14 (Homo sapiens) (UniProt Q16539); conditions: Compound concentration 1000.0 nM
[21] = target: Serine/threonine-protein kinase PAK 2 (Homo sapiens) (UniProt Q13177); conditions: Compound concentration 1000.0 nM
[22] = target: Serine/threonine-protein kinase PAK 3 (Homo sapiens) (UniProt O75914); conditions: Compound concentration 1000.0 nM
[23] = target: Platelet-derived growth factor receptor alpha (Homo sapiens) (UniProt P16234); conditions: Compound concentration 1000.0 nM
[24] = test system: Phosphatidylinositol 4,5-bisphosphate 3-kinase catalytic subunit alpha isoform (Homo sapiens), P42336 [H1047Y]; conditions: Compound concentration 1000.0 nM
[25] = test system: Phosphatidylinositol 4,5-bisphosphate 3-kinase catalytic subunit alpha isoform (Homo sapiens), P42336 [M1043I]; conditions: Compound concentration 1000.0 nM
[26] = test system: Phosphatidylinositol 4,5-bisphosphate 3-kinase catalytic subunit alpha isoform (Homo sapiens), P42336 [Q546K]; conditions: Compound concentration 1000.0 nM
[27] = target: Phosphatidylinositol 4-kinase beta (Homo sapiens) (UniProt Q9UBF8); conditions: Compound concentration 1000.0 nM
[28] = target: Serine/threonine-protein kinase pim-1 (Homo sapiens) (UniProt P11309); conditions: Compound concentration 1000.0 nM
[29] = target: Serine/threonine-protein kinase pim-3 (Homo sapiens) (UniProt Q86V86); conditions: Compound concentration 1000.0 nM
[30] = target: cAMP-dependent protein kinase catalytic subunit alpha (Homo sapiens) (UniProt P17612); conditions: Compound concentration 1000.0 nM
[31] = target: Serine/threonine-protein kinase PLK1 (Homo sapiens) (UniProt P53350); conditions: Compound concentration 1000.0 nM
[32] = target: Serine/threonine-protein kinase PLK4 (Homo sapiens) (UniProt O00444); conditions: Compound concentration 1000.0 nM
[33] = target: Protein kinase C theta type (Homo sapiens) (UniProt Q04759); conditions: Compound concentration 1000.0 nM
[34] = target: Serine/threonine-protein kinase D1 (Homo sapiens) (UniProt Q15139); conditions: Compound concentration 1000.0 nM
[35] = target: Serine/threonine-protein kinase RIO3 (Homo sapiens) (UniProt O14730); conditions: Compound concentration 1000.0 nM
[36] = target: Receptor-interacting serine/threonine-protein kinase 2 (Homo sapiens) (UniProt O43353); conditions: Compound concentration 1000.0 nM
[37] = target: Ribosomal protein S6 kinase alpha-4 (Homo sapiens) (UniProt O75676); conditions: Compound concentration 1000.0 nM
[38] = target: Ribosomal protein S6 kinase alpha-2 (Homo sapiens) (UniProt Q15349); conditions: Compound concentration 1000.0 nM
[39] = target: Serine/threonine-protein kinase Sgk1 (Homo sapiens) (UniProt O00141); conditions: Compound concentration 1000.0 nM
[40] = target: Proto-oncogene tyrosine-protein kinase Src (Homo sapiens) (UniProt P12931); conditions: Compound concentration 1000.0 nM
[41] = target: Tyrosine-protein kinase Tec (Homo sapiens) (UniProt P42680); conditions: Compound concentration 1000.0 nM
[42] = target: High affinity nerve growth factor receptor (Homo sapiens) (UniProt P04629); conditions: Compound concentration 1000.0 nM
[43] = target: Serine/threonine-protein kinase VRK2 (Homo sapiens) (UniProt Q86Y07); conditions: Compound concentration 1000.0 nM
[44] = target: Histamine H4 receptor (Homo sapiens) (UniProt Q9H3N8); conditions: Compound concentration 10.0 uM
[45] = target: Alpha-1B adrenergic receptor (Homo sapiens) (UniProt P35368); conditions: Compound concentration 10.0 uM

Chain of Phosphatidylinositol 4-kinase beta (Homo sapiens) (Q9UBF8 2-816 limits assumed): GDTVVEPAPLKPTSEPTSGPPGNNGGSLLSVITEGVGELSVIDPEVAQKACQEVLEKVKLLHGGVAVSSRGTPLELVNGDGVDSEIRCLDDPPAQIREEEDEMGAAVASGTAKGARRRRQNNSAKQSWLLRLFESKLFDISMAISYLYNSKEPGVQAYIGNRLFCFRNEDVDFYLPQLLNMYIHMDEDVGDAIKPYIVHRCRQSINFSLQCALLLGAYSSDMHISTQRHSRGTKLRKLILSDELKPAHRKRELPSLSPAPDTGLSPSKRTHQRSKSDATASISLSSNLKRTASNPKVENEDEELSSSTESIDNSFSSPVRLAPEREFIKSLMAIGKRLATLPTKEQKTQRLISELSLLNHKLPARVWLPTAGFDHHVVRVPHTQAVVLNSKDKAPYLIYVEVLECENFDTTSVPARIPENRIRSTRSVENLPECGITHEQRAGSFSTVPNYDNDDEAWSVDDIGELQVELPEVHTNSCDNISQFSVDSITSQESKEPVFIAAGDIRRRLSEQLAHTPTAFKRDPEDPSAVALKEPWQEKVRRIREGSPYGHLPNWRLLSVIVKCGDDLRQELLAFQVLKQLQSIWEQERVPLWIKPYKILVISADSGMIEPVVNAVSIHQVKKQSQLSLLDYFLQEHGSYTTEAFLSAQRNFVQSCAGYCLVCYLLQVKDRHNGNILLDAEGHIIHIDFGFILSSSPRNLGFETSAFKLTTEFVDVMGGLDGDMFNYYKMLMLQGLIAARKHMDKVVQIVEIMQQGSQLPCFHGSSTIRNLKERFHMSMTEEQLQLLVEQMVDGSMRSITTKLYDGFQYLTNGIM
Chain of Mitogen-activated protein kinase kinase kinase kinase 3 (Homo sapiens) (Q8IVH8 whole entry): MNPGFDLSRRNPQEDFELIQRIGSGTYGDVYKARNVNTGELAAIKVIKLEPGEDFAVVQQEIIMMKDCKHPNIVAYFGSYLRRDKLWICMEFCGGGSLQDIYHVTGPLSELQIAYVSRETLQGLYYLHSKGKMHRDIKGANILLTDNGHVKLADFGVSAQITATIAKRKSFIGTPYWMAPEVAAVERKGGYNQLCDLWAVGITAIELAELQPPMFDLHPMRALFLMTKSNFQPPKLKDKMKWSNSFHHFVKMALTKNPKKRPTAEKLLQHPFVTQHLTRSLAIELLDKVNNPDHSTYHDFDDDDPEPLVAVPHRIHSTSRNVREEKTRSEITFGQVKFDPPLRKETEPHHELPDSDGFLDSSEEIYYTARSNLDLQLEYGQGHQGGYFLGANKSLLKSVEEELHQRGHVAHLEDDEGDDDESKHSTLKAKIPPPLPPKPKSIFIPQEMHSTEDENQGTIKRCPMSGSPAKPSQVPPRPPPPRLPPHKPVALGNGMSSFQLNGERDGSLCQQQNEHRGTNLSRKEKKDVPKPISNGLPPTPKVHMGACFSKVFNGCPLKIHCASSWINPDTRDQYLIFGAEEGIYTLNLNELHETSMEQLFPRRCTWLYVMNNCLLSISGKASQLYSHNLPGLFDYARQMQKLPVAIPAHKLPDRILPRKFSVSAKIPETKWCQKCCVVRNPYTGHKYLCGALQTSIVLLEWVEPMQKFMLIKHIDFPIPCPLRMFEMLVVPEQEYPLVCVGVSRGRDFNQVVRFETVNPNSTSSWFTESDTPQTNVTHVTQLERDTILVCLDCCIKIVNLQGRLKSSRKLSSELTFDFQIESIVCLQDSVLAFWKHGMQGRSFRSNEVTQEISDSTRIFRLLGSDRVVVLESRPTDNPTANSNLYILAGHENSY
Chain of Cyclin-dependent kinase 11B (Homo sapiens) (P21127 whole entry): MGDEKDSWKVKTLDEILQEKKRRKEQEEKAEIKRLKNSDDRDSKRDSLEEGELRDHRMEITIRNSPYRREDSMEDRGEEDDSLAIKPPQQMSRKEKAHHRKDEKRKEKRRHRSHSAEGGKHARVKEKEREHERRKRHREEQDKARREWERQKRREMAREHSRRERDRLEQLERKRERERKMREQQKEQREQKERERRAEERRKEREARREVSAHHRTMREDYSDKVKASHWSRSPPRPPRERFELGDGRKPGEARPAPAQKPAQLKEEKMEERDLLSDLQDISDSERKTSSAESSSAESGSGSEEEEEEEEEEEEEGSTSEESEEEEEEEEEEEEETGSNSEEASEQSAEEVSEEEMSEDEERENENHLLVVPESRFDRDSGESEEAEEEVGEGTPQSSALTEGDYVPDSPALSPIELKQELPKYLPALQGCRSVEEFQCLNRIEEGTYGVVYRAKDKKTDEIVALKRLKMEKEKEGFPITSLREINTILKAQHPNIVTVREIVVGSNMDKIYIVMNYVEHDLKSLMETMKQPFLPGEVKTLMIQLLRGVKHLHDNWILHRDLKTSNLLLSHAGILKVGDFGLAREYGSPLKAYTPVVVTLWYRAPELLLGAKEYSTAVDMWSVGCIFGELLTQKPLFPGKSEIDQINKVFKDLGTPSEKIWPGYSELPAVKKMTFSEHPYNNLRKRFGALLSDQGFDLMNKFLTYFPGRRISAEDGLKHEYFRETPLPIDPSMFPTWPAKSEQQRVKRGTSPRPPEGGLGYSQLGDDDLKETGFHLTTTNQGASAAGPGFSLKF
Chain of G protein-coupled receptor kinase 3 (Homo sapiens) (P35626 whole entry): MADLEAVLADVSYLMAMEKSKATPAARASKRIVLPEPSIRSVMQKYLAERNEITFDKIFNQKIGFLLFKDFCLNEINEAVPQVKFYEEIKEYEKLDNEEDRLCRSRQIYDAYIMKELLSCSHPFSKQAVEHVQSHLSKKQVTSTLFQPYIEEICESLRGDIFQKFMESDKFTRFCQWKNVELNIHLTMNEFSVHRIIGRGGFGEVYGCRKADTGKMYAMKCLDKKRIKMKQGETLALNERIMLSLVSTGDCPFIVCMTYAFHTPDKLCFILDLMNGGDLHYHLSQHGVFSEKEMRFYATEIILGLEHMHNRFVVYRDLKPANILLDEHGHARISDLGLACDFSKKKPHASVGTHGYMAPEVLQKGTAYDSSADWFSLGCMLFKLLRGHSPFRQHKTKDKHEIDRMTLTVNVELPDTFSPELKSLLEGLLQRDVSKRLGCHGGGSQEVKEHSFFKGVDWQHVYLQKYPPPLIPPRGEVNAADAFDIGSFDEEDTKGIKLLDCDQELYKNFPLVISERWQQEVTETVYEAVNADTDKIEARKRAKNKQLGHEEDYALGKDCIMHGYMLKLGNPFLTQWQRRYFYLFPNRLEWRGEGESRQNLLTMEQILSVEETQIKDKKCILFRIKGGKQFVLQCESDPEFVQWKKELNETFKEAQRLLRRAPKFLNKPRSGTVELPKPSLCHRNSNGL
Chain of Ribosomal protein S6 kinase alpha-2 (Homo sapiens) (Q15349 whole entry): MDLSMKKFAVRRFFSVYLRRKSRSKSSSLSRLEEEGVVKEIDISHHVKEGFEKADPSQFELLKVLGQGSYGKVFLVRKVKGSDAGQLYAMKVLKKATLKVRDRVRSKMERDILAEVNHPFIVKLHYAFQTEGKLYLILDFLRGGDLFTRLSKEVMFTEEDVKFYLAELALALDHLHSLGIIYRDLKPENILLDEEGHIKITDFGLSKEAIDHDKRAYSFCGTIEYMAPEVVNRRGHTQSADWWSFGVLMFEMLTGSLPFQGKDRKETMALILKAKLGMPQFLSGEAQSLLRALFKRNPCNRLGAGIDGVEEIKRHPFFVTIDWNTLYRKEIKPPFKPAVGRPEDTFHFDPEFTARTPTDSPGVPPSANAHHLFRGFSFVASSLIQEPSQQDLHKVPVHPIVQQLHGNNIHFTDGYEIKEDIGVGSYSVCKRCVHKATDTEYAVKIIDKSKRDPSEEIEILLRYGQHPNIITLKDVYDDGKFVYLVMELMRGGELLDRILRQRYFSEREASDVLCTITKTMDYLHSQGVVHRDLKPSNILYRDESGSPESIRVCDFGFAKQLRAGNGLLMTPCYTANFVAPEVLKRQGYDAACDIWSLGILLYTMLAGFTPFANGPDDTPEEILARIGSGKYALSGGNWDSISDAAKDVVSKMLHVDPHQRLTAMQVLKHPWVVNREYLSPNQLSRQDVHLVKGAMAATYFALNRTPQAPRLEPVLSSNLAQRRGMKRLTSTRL
Chain of Serine/threonine-protein kinase PLK4 (Homo sapiens) (O00444 whole entry): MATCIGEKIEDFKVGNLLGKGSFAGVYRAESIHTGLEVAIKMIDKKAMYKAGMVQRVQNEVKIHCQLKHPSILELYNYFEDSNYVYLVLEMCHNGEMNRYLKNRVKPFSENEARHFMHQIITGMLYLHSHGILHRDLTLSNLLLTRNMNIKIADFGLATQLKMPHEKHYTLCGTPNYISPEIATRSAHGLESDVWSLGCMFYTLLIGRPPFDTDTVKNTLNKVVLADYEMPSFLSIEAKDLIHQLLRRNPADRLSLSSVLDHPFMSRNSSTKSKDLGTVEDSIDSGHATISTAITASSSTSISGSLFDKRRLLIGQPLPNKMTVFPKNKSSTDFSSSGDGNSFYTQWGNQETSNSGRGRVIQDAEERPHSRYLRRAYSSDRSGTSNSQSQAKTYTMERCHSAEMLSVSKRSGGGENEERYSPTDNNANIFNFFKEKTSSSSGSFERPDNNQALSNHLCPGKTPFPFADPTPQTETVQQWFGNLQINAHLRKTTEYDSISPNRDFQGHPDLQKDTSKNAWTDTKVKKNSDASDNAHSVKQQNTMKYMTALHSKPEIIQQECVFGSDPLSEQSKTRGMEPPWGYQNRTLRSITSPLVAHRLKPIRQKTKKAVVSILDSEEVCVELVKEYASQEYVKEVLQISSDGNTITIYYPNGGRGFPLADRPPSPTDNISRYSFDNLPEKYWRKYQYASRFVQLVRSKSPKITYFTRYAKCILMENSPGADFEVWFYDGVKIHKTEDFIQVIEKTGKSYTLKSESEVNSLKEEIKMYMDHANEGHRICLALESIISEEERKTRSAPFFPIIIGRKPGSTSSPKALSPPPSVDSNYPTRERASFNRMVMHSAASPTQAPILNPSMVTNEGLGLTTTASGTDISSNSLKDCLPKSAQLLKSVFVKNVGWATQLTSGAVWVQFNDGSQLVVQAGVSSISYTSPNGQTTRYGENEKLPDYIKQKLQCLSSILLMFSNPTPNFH

Cc1nc(N2CC[C@@H](O)C2)ncc1-c1cc(C(F)(F)F)cc2[nH]ncc12 [TP-004]
residual activity [1]: 77%
residual activity [2]: 100%
residual activity [3]: 94%
residual activity [4]: 100%
residual activity [5]: 100%
residual activity [6]: 78%
residual activity [7]: 100%
residual activity [8]: 86%
residual activity [9]: 100%
residual activity [10]: 100%
residual activity [11]: 87%
residual activity [12]: 70%
residual activity [13]: 81%
residual activity [14]: 100%
residual activity [15]: 76%
residual activity [16]: 100%
residual activity [17]: 100%
residual activity [18]: 100%
residual activity [19]: 100%
residual activity [20]: 100%
residual activity [21]: 100%
residual activity [22]: 72%
residual activity [23]: 76%
residual activity [24]: 99%
residual activity [25]: 100%
residual activity [26]: 82%
residual activity [27]: 53%
residual activity [28]: 100%
residual activity [29]: 100%
residual activity [30]: 83%
residual activity [31]: 64%
residual activity [32]: 93%
residual activity [33]: 100%
residual activity [34]: 75%
residual activity [35]: 100%
residual activity [36]: 95%
residual activity [37]: 68%
residual activity [38]: 100%
residual activity [39]: 49%
residual activity [40]: 95%
residual activity [41]: 84%
residual activity [42]: 56%
residual activity [43]: 86%
inhibition [44]: 12%
inhibition [45]: 15.9%
